Assays:
[1] = test system: PTEN/AKT pathway in PC3 cells (PTEN-null); test: Western blot analysis of PTEN/AKT pathway in PC3 cells; assay type: cell-based, human; details: different doses of I3C for 3 Days
Experimental: FIG. 11B provides an analysis of effects of I3C on PTEN/AKT pathway in DU145 or PC3 cells by western blot analysis. Cells were treated with different doses of I3C for 3 Days, and followed by western blot analysis. Whether targeting WWP1/NEDD4-1, thereby enhancing PTEN dimerization and function, could offer a unique opportunity to treat MYC-driven cancers was investigated. […] As there is no small pharmacological inhibitor currently available to suppress/inhibit WWP1 activity, Indole-3-Carbinol (I3C), a potential WWP1 inhibitor, which suppresses the WWP1 activity through binding to its HECT domain, was used. First, to assess the on-target effects of I3C towards WWP1, Wwp1^−/− MEFs were used. […] Additionally, two independent PTEN stably knocked-down cells were generated. […] Western Blotting and Immunoprecipitation. For western blotting, cells were lysed in RIPA buffer (Boston BioProducts) supplemented with protease (Roche) and phosphatase (Roche) inhibitor. Proteins were separated on NuPAGE 4-12% Bis-Tris gradient gels (Invitrogen), transferred to polyvinylidine difluoride membranes (Immobilon P, Millipore) and the blots were probed with the indicated antibodies. For immunoprecipitation, PC3, 293T and MEF cells were transfected with the indicated expression vectors by using LIPOFECTAMIN 2000 (Life Technologies). […]

Hi-Myc mouse prostates = test: Preclinical study of I3C in Hi-Myc mice (prostate cancer); assay type: in vivo
Experimental: FIGS. 12A and 12B show hematoxylin and eosin (H&E) staining of mouse prostate and gross anatomy of representative Hi-Myc urogenital tract. Quantification of percentage of normal epithelium in Hi-Myc mice treated with vehicle or I3C at 6 months as shown in (A) (right). The mice at 5 months of age were treated I.P. with I3C (20 mg/kg), three times a week for 1 month starting on day zero. (n=4 per genotype) scale bar, […].
FIG. 12C provides a Western blot analysis of dorsal lateral prostate (DLP) lysates from Hi-Myc mice as in (A).
The boxed areas are enlarged three fold to show the subcellular localization of PTEN on the right. Arrow indicates the PTEN plasma membrane localization. Bar, 50 μm.
To examine the functional relevance of the WWP1/NEDD4-1/PTEN crosstalk in vivo, preclinical studies with I3C in Hi-Myc mice were performed. The expression of Hi-Myc in mouse prostate results in complete penetrance of prostatic intraepithelial neoplasia (PIN) and progresses into invasive adenocarcinoma within 5 to 12 months of age. To this end, cohorts of Hi-Myc mice at 5 months of age were treated with either the vehicle or I3C for one month.
The Beth Israel Deaconess Medical Center IACUC Committee on Animal Research approved all animal experiments. The transgenic mice used in these studies (Hi-Myc-mice), in which the prostate specific expression of human c-Myc is driven by the rat probasin promoter with two androgen response elements, were obtained from the Mouse Repository of National Cancer Institute. 9 mice per genotype were randomly chosen and used to examine the tumour at the indicated age. Wwp1−/−mice and its paired Wwp1+/+ mice (on a C57/BL6 background) were obtained from Dr. L. Matesic (University of South Carolina, Columbia, SC, USA) (Shu et al., 2013). The pathologist determined the histological grade blindly.
The mice were treated I.P. with I3C dissolved in 5% DMSO (20 mg/kg), three times a week for […] starting on day zero. I.P. administration allows I3C to achieve maximal systemic exposure.

[2] = test system: DU145 cells stably expressing MYC or vector control; test: Growth curves, MTT assay, DU145 cells stably expressing MYC or vector control; assay type: cell-based, human
[3] = test system: DU145 cells with PTEN depletion; test: Growth curves, MTT assay, DU145 cells with stable PTEN shRNA knockdown; assay type: cell-based, human; details: two independent PTEN shRNAs, various doses of I3C for 5 Days
Text: FIG. 11D provides growth curves of DU145 cells, stably expressing vector control or two independent shRNAs, treated with various doses of I3C for 5 Days, and then assayed with colorimetric MTT assay (three experiments). Whether targeting WWP1/NEDD4-1, thereby enhancing PTEN dimerization and function, could offer a unique opportunity to treat MYC-driven cancers was investigated. […] As there is no small pharmacological inhibitor currently available to suppress/inhibit WWP1 activity, Indole-3-Carbinol (I3C), a potential WWP1 inhibitor, which suppresses the WWP1 activity through binding to its HECT domain, was used. First, to assess the on-target effects of I3C towards WWP1, Wwp1^−/− MEFs were used. […] Additionally, two independent PTEN stably knocked-down cells were generated.

[4] = Hi-Myc mice, I3C 20 mg/kg I.P., western blot

OCc1c[nH]c2ccccc12 [I3C, indole-3-carbinol]
effects on AKT suppression and apoptosis [1]: only negligible effects
tumor size, DLP and AP (Hi-Myc mouse prostates; Hi-Myc mice 5 months of age, I3C 20 mg/kg I.P. three times a week for 1 month, dorsal lateral and anterior prostate): significantly reduced tumor size
tumor size, VP (Hi-Myc mouse prostates; Hi-Myc mice, I3C 20 mg/kg I.P. three times a week for 1 month, ventral prostate): less prominently
PTEN plasma membrane localization in prostate epithelial cells (IHC, DLP tissue) (Hi-Myc mouse prostates; Hi-Myc mice, I3C 20 mg/kg I.P., compared to vehicle): induced intense PTEN plasma membrane accumulation
histology of APs (Hi-Myc mouse prostates; Hi-Myc mice, I3C 20 mg/kg I.P., anterior prostate, H&E): completely disease-free
histology of DLPs: penetrance of invasive carcinoma (Hi-Myc mouse prostates; Hi-Myc mice, I3C 20 mg/kg I.P., dorsal lateral prostate, H&E): significantly lower penetrance
AKT activation in prostate lysates, AP and DLP (Hi-Myc mouse prostates; [4]): robustly inhibited AKT activation
PTEN protein level in prostate lysates (Hi-Myc mouse prostates; [4]): without affecting PTEN protein level
cell growth upon overexpression of MYC ([2]; MYC-overexpressing DU145 cells, same low dose of I3C): became sensitized
cell growth of control cells ([2]; vector control DU145 cells, low dose of I3C): little effect on the cell growth
sensitivity of cells with PTEN depletion compared to control cells [3]: exhibited resistance

From patent publication US20190374506A1, “COMPOSITIONS AND METHODS FOR TREATING CANCER” (BETH ISREAL DEACONESS MEDICAL CENTER, priority 2016, published 2019)
